Measurements as given in US6610883B1, “Compounds having selective activity for retinoid X receptors, and means for modulation of processes mediated by retinoid X receptors” (Ligand Pharmaceuticals, Inc., priority 1992, dated 2003).
Where two headings read alike, the source gives them in different places.

Key:
Type in all cases: cell-based
RARγ = target: T1, RARγ (Homo sapiens, UniProt P13631); experiment: Co-transfection (cis-trans) assay in CV-1 cells, RARγ; parameters: expressed in transfected cells; host or cells: CV-1 (monkey kidney); details: for Emax at 10 µM: CV-1, maximal response relative to all-trans-retinoic acid at 10^−5 M, read-out: Efficacy; for EC50: CV-1 cells, luciferase reporter, 36 h, read-out: Potency
T1 sequence (P13631 1-454): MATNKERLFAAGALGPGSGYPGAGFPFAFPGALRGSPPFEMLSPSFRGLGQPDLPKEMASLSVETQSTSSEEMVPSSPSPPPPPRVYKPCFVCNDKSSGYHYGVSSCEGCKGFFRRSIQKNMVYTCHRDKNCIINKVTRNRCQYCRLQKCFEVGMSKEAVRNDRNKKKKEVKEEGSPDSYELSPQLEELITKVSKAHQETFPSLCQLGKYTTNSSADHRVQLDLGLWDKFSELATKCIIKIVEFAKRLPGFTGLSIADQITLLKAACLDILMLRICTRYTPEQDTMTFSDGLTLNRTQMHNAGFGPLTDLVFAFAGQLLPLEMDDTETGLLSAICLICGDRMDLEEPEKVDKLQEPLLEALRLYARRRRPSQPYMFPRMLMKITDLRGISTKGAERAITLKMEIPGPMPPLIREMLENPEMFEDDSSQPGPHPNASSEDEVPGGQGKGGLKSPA
Excerpt: (§1) The co-transfection assay provides a mechanism to evaluate the ability of a compound to modulate the transcription response initiated by an intracellular receptor. […] Berger, et al., J. Steroid Biochem Molec.
(§2) Briefly, the co-transfection assay involves the introduction of two plasmids by transient transfection into a retinoid receptor-negative mammalian cell background. The first plasmid contains a retinoid receptor cDNA and directs constitutive expression of the encoded receptor. The second plasmid contains a cDNA that encodes for a readily quantifiable protein, e.g., firefly luciferase or chloramphenicol acetyl transferase (CAT), under control of a promoter containing a retinoid acid response element, which confers retinoid dependence on the transcription of the reporter. In this co-transfection assay, all retinoid receptors respond to all-trans-retinoic acid in a similar fashion. This assay can be used to accurately measure efficacy and potency of retinoic acid and synthetic retinoids as ligands that interact with the individual retinoid receptor subtypes.
(§3) Accordingly, synthetic retinoid compounds of the current invention were evaluated for their interaction with retinoid receptor subtypes using the co-transfection assay in which CV-1 cells were co-transfected with one of the retinoid receptor subtypes, a reporter construct, and an internal control to allow normalization of the response for transfection efficiency. The following example is illustrative.
(§4) Retinoids: All-tans-retinoic acid (RA) and 13-cis-retinoic acid (13-cis-RA) were obtained from Sigma. […] Retinoids were dissolved in dimethylsulfoxide for use in the transcriptional activation assays.
(§5) Co-transfection Assay In CV-1 Cells: A monkey kidney cell line, CV-1, was used in the cis-trans assay. Cells were transfected with two plasmids. […] The cis-vector contains an easily assayable gene product, in this case the firefly luciferase, coupled to a retinoid-responsive promoter, i.e., an RARE or RXRE. Addition of retinoic acid or an appropriate synthetic retinoid results in the formation of a retinoid-RAR or -RXR complex that activates the expression of luciferase gene, causing light to be emitted from cell extracts. The level of luciferase activity is directly proportional to the effectiveness of the retinoid-receptor complex in activating gene expression. This sensitive and reproducible co-transfection approach permits the identification of retinoids that interact with the different receptor isoforms.
(§6) Cells were cultured in DMEM supplemented with 10% charcoal resin-stripped fetal bovine serum, and experiments were conducted in 96-well plates. […] Cells were transfected for 6 h and then washed to remove the precipitate. The cells were then incubated for 36 h with or without retinoid. After the transfection, all subsequent steps were performed on a Beckman Biomek Automated Workstation. […] All determinations were performed in triplicate in two independent experiments and were normalized for transfection efficiency by using β-galactosidase as the internal control. […] Efficacy values less than 5% are not statistically different than the 0% background.

RXRα = target: T2, RXRα (Homo sapiens, UniProt P19793); experiment: Co-transfection (cis-trans) assay in CV-1 cells, RXRα; parameters: Emax: dose or concentration left out as unconfirmed; details: for Emax at 10 µM: CV-1, maximal response relative to all-trans-retinoic acid at 10^−5 M, read-out: Efficacy
T2 construct: The first plasmid contains a retinoid receptor cDNA and directs constitutive expression of the encoded receptor; expressed in transfected cells; host or cells: CV-1 (monkey kidney)
T2 sequence (P19793 1-462): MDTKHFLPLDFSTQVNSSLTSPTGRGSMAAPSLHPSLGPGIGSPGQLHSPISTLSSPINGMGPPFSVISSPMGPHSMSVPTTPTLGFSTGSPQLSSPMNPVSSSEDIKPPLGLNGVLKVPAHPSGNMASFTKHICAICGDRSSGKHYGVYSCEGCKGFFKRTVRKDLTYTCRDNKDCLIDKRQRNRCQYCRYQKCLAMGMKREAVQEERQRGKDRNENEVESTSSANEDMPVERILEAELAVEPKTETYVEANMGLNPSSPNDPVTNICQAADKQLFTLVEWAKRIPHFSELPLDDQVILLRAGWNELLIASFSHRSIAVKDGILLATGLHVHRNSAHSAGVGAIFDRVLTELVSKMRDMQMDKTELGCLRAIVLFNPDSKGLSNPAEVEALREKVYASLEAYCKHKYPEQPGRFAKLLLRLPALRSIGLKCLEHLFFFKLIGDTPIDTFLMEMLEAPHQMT
Excerpt: as §1, §2, §3, §4, §5, §6

RXRβ = target: T3, RXRβ (Mus musculus, UniProt P28704); experiment: Co-transfection (cis-trans) assay in CV-1 cells, RXRβ; details: for Emax at 10 µM: CV-1, maximal response relative to all-trans-retinoic acid at 10^−5 M, read-out: Efficacy
T3 construct: expressed in transfected cells; host or cells: CV-1 (monkey kidney)
T3 sequence (P28704 1-520): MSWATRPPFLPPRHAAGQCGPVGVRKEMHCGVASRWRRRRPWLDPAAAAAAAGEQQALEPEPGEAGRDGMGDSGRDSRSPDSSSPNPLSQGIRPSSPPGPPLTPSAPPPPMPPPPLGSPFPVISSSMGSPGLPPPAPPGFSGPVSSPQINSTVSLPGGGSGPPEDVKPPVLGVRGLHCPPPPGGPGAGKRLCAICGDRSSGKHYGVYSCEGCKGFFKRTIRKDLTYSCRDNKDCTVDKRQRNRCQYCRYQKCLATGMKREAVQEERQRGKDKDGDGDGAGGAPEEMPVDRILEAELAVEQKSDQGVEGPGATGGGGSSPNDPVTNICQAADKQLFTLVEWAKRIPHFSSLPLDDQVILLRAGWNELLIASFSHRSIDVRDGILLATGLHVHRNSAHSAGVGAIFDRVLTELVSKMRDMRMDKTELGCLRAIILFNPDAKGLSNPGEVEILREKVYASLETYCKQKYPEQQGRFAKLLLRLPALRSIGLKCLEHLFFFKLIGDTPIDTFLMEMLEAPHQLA
Excerpt: as §1, §2, §3, §4, §5, §6

[1] = RXRα, CV-1 cells, luciferase reporter, 36 h, read-out: Potency
[2] = RXRβ, CV-1 cells, luciferase reporter, 36 h, read-out: Potency

Row | SMILES | Emax at 10 µM (RARγ) [%] | EC50 (RARγ) [nM] | Emax at 10 µM (RXRα; RXRα) [%] | EC50 (RXRα; [1]) [nM] | Emax at 10 µM (RXRβ; RXRβ) [%] | EC50 (RXRβ; [2]) [nM] | EC50 (RXRα) [nM] | Emax (RXRα; CV-1, read-out: Efficacy) [%] | EC50 (RXRβ) [nM]
1 | CCCC(=C/C=C/C(C)=C/C(=O)O)/C=C/C1=C(C)CCCC1(C)C [Compound 74, 3-methyl-7-propyl-9-(2,6,6-trimethyl-1-cyclohexen-1-yl)-2E,4E,6Z,8E-nonatetranoic acid] | 61 | 37 | 78 | 11 | 91 | 6 | – | – | –
2 | CC1=C(C=CC2CCCCC2/C=C/C(C)=C/C(=O)O)C(C)(C)CCC1 (stereo not shown) [Compound 100, 3-methyl-5-(2-[2-(2,6,6-trimethylcyclohexen-1-yl)ethenyl]cyclohexyl)-2E,4E-pentadienoic acid] | 4 | > 10000 | 63 | 123 | 54 | 71 | – | – | –
3 | CC1=C(/C=C/C(=C\C=C\C(C)=C\C(=O)O)C(C)(C)C)C(C)(C)CCC1 [Compound 77, 3-methyl-7-t-butyl-9-(2,6,6-trimethyl-1-cyclohexen-1-yl)-2E,4E,6Z,8E-nonatetranoic acid] | 44 | 170 | 75 | 16 | 99 | 11 | – | – | –
4 | CC1=C(/C=C/C(=C\C=C\C(C)=C\C(=O)O)C(C)C)C(C)(C)CCC1 [Compound 75, 3-methyl-7-isopropyl-9-(2,6,6-trimethyl-1-cyclohexen-1-yl)-2E,4E,6Z,8E-nonatetranoic acid] | 119 | 150 | 100 | 21 | 142 | 18 | – | – | –
5 | CC1=C(/C=C/C2(C/C=C/C(C)=C/C(=O)O)CC2)C(C)(C)CCC1 [Compound 110] | 37 | 1770 | 79 | 85 | 73 | 70 | – | – | –
6 | C=C(c1ccc(C(=O)O)cc1)c1cc2c(cc1Br)C(C)(C)CCC2(C)C [3-Bromo-TTNEB, 4-[1-(3-bromo-5,5,8,8-tetramethyl-5,6,7,8-tetrahydro-2-naphthyl)ethenyl]benzoic acid] | 15 | – | – | – | – | – | 64 | 88 | 54

Continued, in another order:

Row | Emax at 10 µM (RARγ) [%] | EC50 (RARγ) [nM] | Emax at 10 µM (RXRα; RXRα) [%] | EC50 (RXRα; [1]) [nM] | Emax at 10 µM (RXRβ; RXRβ) [%] | EC50 (RXRβ; [2]) [nM] | SMILES | EC50 (RXRα) [nM] | Emax (RXRα; CV-1, read-out: Efficacy) [%] | EC50 (RXRβ) [nM]
7 | 17 | > 10000 | 113 | 1100 | 155 | 1100 | Cc1cc2c(cc1C(=O)c1ccc(C(=O)Nc3ccc(O)cc3)cc1)C(C)(C)CCC2(C)C [3-Methyl-TTNCHBP, 4-[(3,5,5,8,8-pentamethyl-5,6,7,8-tetrahydro-2-naphthyl)carbonyl]-N-(4-hydroxyphenyl)benzamide] | – | – | –
8 | 49 | 283 | 90 | 24 | 105 | 21 | CC(/C=C/C=C(\c1ccc2c(c1)C(C)(C)CCC2(C)C)C(C)C)=C\C(=O)O [Compound 123, (2E,4E,6Z)-7-(5,5,8,8-tetramethyl-5,6,7,8-tetrahydro-2-naphthyl)-3,8-dimethyl-nona-2,4,6-trienoic acid] | – | – | –
9 | 37 | 309 | 108 | 11 | 154 | 22 | C/C(=C/C=C/C(C)=C/C(=O)O)c1cc2c(cc1C)C(C)(C)CCC2(C)C [Compound 128, (2E,4E,6Z)-7-(3,5,5,8,8-pentamethyl-5,6,7,8-tetrahydro-2-naphthyl)-3-methyl-octa-2,4,6-trienoic acid] | – | – | –
10 | 28 | 144 | 75 | 5 | 133 | 13 | CC(/C=C/C1(c2cc3c(cc2C)C(C)(C)CCC3(C)C)CC1)=C\C(=O)O [Compound 104, (2E,4E)-3-methyl-5-[1-(3,5,5,8,8-pentamethyl-5,6,7,8-tetrahydro-2-naphthyl)cyclopropyl]penta-2,4-dienoic acid] | – | – | –
11 | 10 | > 10000 | 125 | 140 | 121 | 71 | C=C(c1ccc(C(=O)Nc2ccc(O)cc2)cc1)c1cc2c(cc1C)C(C)(C)CCC2(C)C [3-Methyl-TTNEHBP (63), 4-[1-(3,5,5,8,8-pentamethyl-5,6,7,8-tetrahydro-2-naphthyl)ethenyl]-N-(4-hydroxyphenyl)benzamide] | – | – | –
